Laboratory results reported in ChEMBL document CHEMBL3792365, “Dioxol and dihydrodioxin analogs of 2- and 3-phenylacetonitriles as potent anti-cancer agents with nanomolar activity against a variety of human cancer cells” (2016).

Key:
Type in all cases: functional
[1] = test system: U-251; assay: Growth inhibition of human U251 cells at 10 uM after 48 hrs by sulforhodamine B assay; details: U-251, 48 h, values are per cent of control
[2] = test system: Malme-3M; assay: Growth inhibition of human MALME-3M cells at 10 uM after 48 hrs by sulforhodamine B assay; details: values are per cent of control
[3] = Growth inhibition of human UACC257 cells at 10 uM after 48 hrs by sulforhodamine B assay; details: UACC-257, 48 h, values are per cent of control
[4] = Growth inhibition of human OVCAR3 cells at 10 uM after 48 hrs by sulforhodamine B assay; details: OVCAR-3, 48 h, values are per cent of control
[5] = Growth inhibition of human NCI-ADR-RES cells at 10 uM after 48 hrs by sulforhodamine B assay; details: values are per cent of control
[6] = Growth inhibition of human SKOV3 cells at 10 uM after 48 hrs by sulforhodamine B assay; details: SK-OV-3, 48 h, values are per cent of control
[7] = Growth inhibition of human TK10 cells at 10 uM after 48 hrs by sulforhodamine B assay; details: TK-10, 48 h, values are per cent of control
[8] = Growth inhibition of human PC3 cells at 10 uM after 48 hrs by sulforhodamine B assay; details: PC-3, 48 h, values are per cent of control
[9] = test system: MCF7; assay: Growth inhibition of human MCF7 cells at 10 uM after 48 hrs by sulforhodamine B assay; details: MCF7, 48 h, values are per cent of control
[10] = test system: T47D; assay: Growth inhibition of human T47D cells at 10 uM after 48 hrs by sulforhodamine B assay; details: values are per cent of control
[11] = test system: MDA-MB-468; assay: Growth inhibition of human MDA-MB-468 cells at 10 uM after 48 hrs by sulforhodamine B assay; details: MDA-MB-468, 48 h, values are per cent of control
[12] = test system: CCRF-CEM; assay: Growth inhibition of human CCRF-CEM cells at 10 uM after 48 hrs by sulforhodamine B assay; details: values are per cent of control
[13] = Growth inhibition of human HL-60(TB) cells at 10 uM after 48 hrs by sulforhodamine B assay; details: HL-60, 48 h, values are per cent of control
[14] = Growth inhibition of human MOLT4 cells at 10 uM after 48 hrs by sulforhodamine B assay; details: MOLT-4, 48 h, values are per cent of control
[15] = Growth inhibition of human RPMI8226 cells at 10 uM after 48 hrs by sulforhodamine B assay; details: RPMI-8226, 48 h, values are per cent of control
[16] = Growth inhibition of human HOP92 cells at 10 uM after 48 hrs by sulforhodamine B assay; details: HOP-92, 48 h, values are per cent of control
[17] = test system: NCI-H522; assay: Growth inhibition of human NCI-H522 cells at 10 uM after 48 hrs by sulforhodamine B assay; details: NCI-H522, 48 h, values are per cent of control
[18] = Growth inhibition of human HCC2998 cells at 10 uM after 48 hrs by sulforhodamine B assay; details: HCC 2998, 48 h, values are per cent of control
[19] = Growth inhibition of human SF268 cells at 10 uM after 48 hrs by sulforhodamine B assay; details: SF-268, 48 h, values are per cent of control

| SMILES | growth, % of control at 10 µM [1] [%] | growth, % of control at 10 µM [2] [%] | growth, % of control at 10 µM [3] [%] | growth, % of control at 10 µM [4] [%] | growth, % of control at 10 µM [5] [%] | growth, % of control at 10 µM [6] [%] | growth, % of control at 10 µM [7] [%] | growth, % of control at 10 µM [8] [%] | growth, % of control at 10 µM [9] [%] | growth, % of control at 10 µM [10] [%] | growth, % of control at 10 µM [11] [%] | growth, % of control at 10 µM [12] [%] | growth, % of control at 10 µM [13] [%] | growth, % of control at 10 µM [14] [%] | growth, % of control at 10 µM [15] [%] | growth, % of control at 10 µM [16] [%] | growth, % of control at 10 µM [17] [%] | growth, % of control at 10 µM [18] [%] | growth, % of control at 10 µM [19] [%] |
| --- | --- | --- | --- | --- | --- | --- | --- | --- | --- | --- | --- | --- | --- | --- | --- | --- | --- | --- | --- |
| N#C/C(=C\c1ccc(Cl)cc1Cl)c1ccc2c(c1)OCO2 | 91.1 | 76.4 | 93.8 | 98.4 | 100 | 97.3 | 90.7 | 93.4 | 110 | 76.3 | 82.1 | 93.3 | 87.3 | 79.2 | 84.6 | 99.9 | 75.8 | 94.8 | 94.4 |
| N#C/C(=C\c1ccc2c(c1)OCO2)c1ccc2c(c1)OCO2 | 77.2 | 69 | 80.2 | 71.7 | 41 | 85.5 | 91 | 70.2 | 23.9 | 67.7 | 54.9 | 73.2 | 57.9 | 67.7 | 75.2 | 94.2 | 76.4 | 72.3 | 81.2 |
| N#C/C(=C\c1cc(F)cc(F)c1)c1ccc2c(c1)OCO2 | 108 | 116 | 104 | 109 | 106 | 102 | 119 | 101 | 88.4 | 102 | 102 | 97.7 | 108 | 83.1 | 94.7 | 125 | 132 | 94.6 | 101 |
